Measured values as given in patent US8852559B2 (Colgate-Palmolive Company, priority 2009, dated 2014).

How the values were obtained:
[1] = type: physicochemical
Text: The poor solubility of Compound A presents some formulation challenges. Its solubility in water is less than 100 ppm, and its solubility in flavor oils (often used to solubilize actives) is less than 0.5%. We have discovered that co-polymers of polyethylene glycol and polypropylene glycol are able to solubilize Compound 1. Fluraflo L4370 (BASF) is able to solubilize 1% Compound 1 (% w/w). It is necessary to stir the solution over low heat to fully solubilize the active. The resulting solution is cloudy, reflecting the nature of the Fluraflo L4370 itself. The solution of 1% Compound 1 in Fluraflo L4370 is diluted 1:1 with 1.5% SLS in water to produce a clear solution, composed of 0.5% AN0128, 0.75% SLS, 50% Fluraflo L4370 in water Similar results are achieved using Fluracare L1220.
We also discovered that Tri-block Co-polymer Surfactant F127 is able to further enhance solubilization of Compound 1. In experimental liquid dentifrice formulas (Table 3), Compound 1 is not completely soluble over time, as evidenced by precipitation and crystallization over time. After the addition of 5% F127, experimental liquid dentifrice formulas (Table 4) remain clear. Therefore, Tri-block Co-polymer Surfactant F127 is able to further solubilize Compound 1 and is suitable for use in formulations.
We further discovered that low molecular weight polyethylene glycol 300 (PEG 300)(Dow Chemical Company) solubilizes 10% Compound 1 (% w/w). It is necessary to stir the solution over low heat to fully solubilize the active. The resulting solution is clear with a slight yellow tint due to the color of Compound 1. […] Therefore, we conclude that solvents containing oligomers and/or polymers of ethylene glycol are capable of solubilizing Compound 1 and are suitable for formulation.
The properties of Compound 1 in conjunction with other excipients are further evaluated by diluting a solution of Compound 1 in PEG 300 into other solvents such as propylene glycol and glycerin at varying ratios. A solution containing 1% Compound 1 in 19% PEG 300 and 80% propylene glycol is clear. […]

biofilm = assay: Biofilm disruption assay; type: cell-based
Experimental: The solution of 0.5% AN0128.0.75% SLS. 50% Fluraflo L4370 in water is then tested in a biofilm disruption assay.
A solution of 2% Compound 1 in PEG 300 is diluted 1:1 with 2% SLS in water to produce a solution composed of 1% Compound 1, 1% SLS, 50% PEG 300 in water which is then tested in a biofilm disruption assay.
The properties of Compound 1 in conjunction with other excipients are further evaluated by diluting a solution of Compound 1 in PEG 300 into other solvents such as propylene glycol and glycerin at varying ratios. A solution containing 1% Compound 1 in 19% PEG 300 and 80% propylene glycol is clear. This solution is then diluted 1:1 with 1% SLS in water to produce a solution composed of 0.5% Compound 1, 0.5% SLS, 9.5% PEG 300 and 40% propylene glycol in water which is then tested in the biofilm disruption assay. The percent reduction achieved versus the negative control is 80%. […] Similar results are achieved with PEG and glycerin.

[2] = Decomposition of Compound 1 in buffered vs unbuffered pH 7.2 formulation; type: physicochemical; conditions: phosphate buffered vs unbuffered formulation, pH 7.2, over 14 days
Experimental: Two pH 7.2 formulations of Compound 1 are prepared, one with phosphate buffer, one without, and the decomposition of Compound 1 is measured over 14 days. While measurable decomposition is seen in both formulations, the slope of the rate of decomposition Compound 1 in the buffered formulation is decreased by 3.3 fold compared to that of the unbuffered formulation.

[3] = Stability of Compound 1 formulations with and without antioxidants; type: physicochemical
Text: The stability of three formulations of Compound 1 are compared, the formulations being identical except that one is without any antioxidants, one contains α-tocopherol, and the third contains sodium ascorbylphosphate.

Cc1ccc([B-]2(c3ccc(C)c(Cl)c3)OC(=O)c3ncccc3[OH+]2)cc1Cl [Compound 1]
amount solubilized in Fluraflo L4370 [1]: 1 % w/w
amount solubilized in polyethylene glycol 300 [1]: 10 % w/w
solubility in various oils [1]: less than 0.5%
percent reduction versus the negative control (biofilm; 0.5% AN0128, 0.75% SLS, 50% Fluraflo L4370 in water): 65%
percent reduction versus the negative control (biofilm; 0.5% Compound 1, 0.5% SLS, 9.5% PEG 300 and 40% propylene glycol in water): 80%
percent reduction versus the negative control (biofilm; 1% Compound 1, 1% SLS, 50% PEG 300 in water): 76%
decrease of slope of the rate of decomposition of Compound 1 [2]: 3.3 fold
decomposition in formulation ([3]; formulation containing sodium ascorbylphosphate vs without any antioxidants): significantly reduced
decomposition in formulation ([3]; formulation containing α-tocopherol vs sodium ascorbylphosphate formulation): even less
